From patent US9949980B2, “Drugs to prevent HPV infection” (Wisconsin Alumni Research Foundation, priority 2008, dated 2018)
“Also recorded” adds a separate entry of the source.

Legend:
HPV16 virus = test: Wild type HPV16 infection in 293T cells, early viral gene expression by real time PCR; type: cell-based; settings: 5 to 10 μM (FIG. 3: 10 μM), 48 hours post infection
Procedure: FIG. 3. Inhibition of infection by HPV 16 virus. Shown is the relative efficiency of infection by HPV16 virus in 293T cells as scored by quantifying early viral transcription using real time PCR for E2 (dark grey bars), E5 (white bars) and E7 (light grey bars) containing mRNAs at 48 hours post-infection in the absence (DMSO—vehicle only, values set at 100%) or the presence of the indicated compound (10 μM concentration). Data points shown are the average of triplicate sample values. The dotted line indicates the normalized value for no drug (set as 100% infection value).
The 21 selected compounds were also tested for their ability to inhibit infection by bonafide HPV16 in 293T cells by measuring early viral gene expression by real time PCR at 48 hours post infection (FIG. 3) after treatment of the cell with 5 to 10 μM of each compound. Consistently with the data of reporter gene assays, HPV early gene expression was inhibited by Compounds 4, 13, 14, 18 and 20. Given the large differences in IC50 and CD50, and the reproducible capacity to inhibit infection by HPV16 pseudovirus and HPV16 virus in different cell types, Compounds 13 and 14 were selected for further analysis.
After 2 day infection, total RNA was isolated from infected cell lysate and treated with DNase I (Promega) as previously. (Pyeon, D. et al., Establishment of human papillomavirus infection requires cell cycle progression, PLos Pathog. 2009 February; 5(2):e1000318. Epub 2009 Feb. 27). Complementary DNA (cDNA) was synthesized from the normalized total RNA with the SuperScript cDNA synthesis kit (Invitrogen). All oligonucleotide primers (0.5 μM) for PCR are previously published (Pyeon D. et al., Production of infectious human papillomavirus independently of viral replication and epithelial cell differentiation, Proc. Nat'l Acad. Sci. USA, 2005 Jun. 28; 102(26):9311-6, Epub 2005 Jun. 15) or listed in Table 2.
Conventional PCR was performed with Taq DNA polymerase (Promega) and the following cycle: denaturation at 94° C. for 5 min, 42 cycles of 94° C. for 30 sec., 55° C. for 1 min., and 72° C. for 1 min., followed by extension at 72° C. for 7 min. Final products were analyzed by 1% agarose gel electrophoresis and ethidium bromide staining. Quantitative RT-PCR was performed using QuantiTect SYBR green PCR kit (Qiagen) with the following cycle: denaturation at 95° C. for 5 min. and 40 cycles of 95° C. for 30 sec., 55° C. for 30 sec., and 72° C. for 30 sec.

in vitro [1] = settings: human
Procedure: The protocol for the secondary screen was identical to that of the primary screen with the exception that all volumes were scaled up by a factor of four. RL activity was measured using the Renilla Luciferase Assay System (Promega).

in vitro [2] = settings: human; remark: listed apart in the source

| SMILES | Inhibition of HPV16 early gene expression (E2, E5, E7 mRNAs) (HPV16 virus) | viability at 52 h, 3.3 μM (in vitro [1]) | viability at 52 h, 3.3 μM (in vitro [2]) |
| --- | --- | --- | --- |
| CCCn1c2ccccc2c2nnc(SC(CC)C(=O)Nc3ccc(Cl)cn3)nc21 (stereo not shown) [Compound 13, N-(5-chloro-2-pyridinyl)-2-[(5-propyl-5H-[1,2,4]triazino[5,6-b]indol-3-yl)thio]butanamide] | reproducible and significant inhibition; also recorded: inhibited |  |  |
| Cc1cc(C(c2ccc(F)cc2)c2cc(C)c(NC(=O)c3ccccc3)c(C)c2)cc(C)c1NC(=O)c1ccccc1 [Compound 14, N,N′[[(4-fluorophenyl)methylene]bis(2,6-dimethyl-4,1-phenylene)]dibenzamide] | reproducible and significant inhibition; also recorded: inhibited | 106% | 106% |
